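Growth conditions: 96-well plates. Treatment: test compound, 48 hours, 5 concentrations. Analysis: linear interpolation between bracketing concentrations; unreached endpoints set to highest concentration. Abbreviation: GI50, concentration required for 50% inhibition of growth.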 Activity calls are given as the source filed them. Cut-off read from the data, not from the text of the source: active = GI50 up to about 1.1 µM and inactive = higher.
Legend:
Assay in all cases: DTP human tumour cell line panel, 48 h
[1] = test system: ACHN
[2] = test system: CAKI-1
[3] = test system: COLO 205
[4] = test system: DU-145
[5] = test system: HL-60
[6] = test system: HOP-62
[7] = test system: HT-29
[8] = test system: IGROV-1
[9] = test system: MOLT-4
[10] = test system: Malme-3M
[11] = test system: NCI-H522
[12] = test system: OVCAR-3
[13] = test system: OVCAR-4
[14] = test system: OVCAR-8
[15] = test system: SF-295
[16] = test system: SK-MEL-2
[17] = test system: SK-MEL-5
[18] = test system: SR
[19] = test system: T47D
[20] = test system: CCRF-CEM

Row | Compound | GI50 [1] | GI50 [2] | GI50 [3] | GI50 [4] | GI50 [5] | GI50 [6] | GI50 [7] | GI50 [8] | GI50 [9] | GI50 [10] | GI50 [11] | GI50 [12] | GI50 [13] | GI50 [14] | GI50 [15] | GI50 [16] | GI50 [17] | GI50 [18] | GI50 [19] | GI50 [20]
1 | O=c1c2ccccc2nc(-c2cc3c(cc2Cl)Sc2nccn2S3(=O)=O)n1-c1ccccc1 | > 100 µM (inactive) | > 100 µM (inactive) | > 100 µM (inactive) | 20.8 µM (inactive) | 4.13 µM (inactive) | 18.2 µM (inactive) | 40.5 µM (inactive) | 42.6 µM (inactive) | > 100 µM (inactive) | > 100 µM (inactive) | > 100 µM (inactive) | 15.9 µM (inactive) | 17.9 µM (inactive) | 12.3 µM (inactive) | 21.6 µM (inactive) | 18.5 µM (inactive) | 45.3 µM (inactive) | 67.6 µM (inactive) | 8.93 µM (inactive) | –
2 | CN(C)c1ccc(/C=C(\C#N)C(N)=C(C#N)C#N)cc1 | > 100 µM (inactive) | > 100 µM (inactive) | > 100 µM (inactive) | > 100 µM (inactive) | > 100 µM (inactive) | > 100 µM (inactive) | > 100 µM (inactive) | > 100 µM (inactive) | – | 32 µM (inactive) | > 100 µM (inactive) | > 100 µM (inactive) | > 100 µM (inactive) | > 100 µM (inactive) | > 100 µM (inactive) | – | > 100 µM (inactive) | > 100 µM (inactive) | > 100 µM (inactive) | > 100 µM (inactive)
3 | CC(C)(C)N/N=C(/Cc1nc2c3c(ccc2nc1O)C(=O)c1ccccc1C3=O)C(=O)NC1=C(Cl)C(=O)c2ccccc2C1=O | 5.37 µM (inactive) | 1.06 µM (active) | 24 µM (inactive) | 21.8 µM (inactive) | 10.3 µM (inactive) | – | 13.6 µM (inactive) | 5.14 µM (inactive) | 23.2 µM (inactive) | 12.3 µM (inactive) | 16.9 µM (inactive) | 13.9 µM (inactive) | 5.16 µM (inactive) | 10 µM (inactive) | 39.4 µM (inactive) | 12.4 µM (inactive) | 11.1 µM (inactive) | 27.7 µM (inactive) | 23.3 µM (inactive) | 14.4 µM (inactive)
4 | COc1ccc2oc(=O)c3c(c2c1C)OC(C)(C)C=C3 | > 100 µM (inactive) | > 100 µM (inactive) | > 100 µM (inactive) | > 100 µM (inactive) | > 100 µM (inactive) | > 100 µM (inactive) | > 100 µM (inactive) | > 100 µM (inactive) | 44.1 µM (inactive) | > 100 µM (inactive) | > 100 µM (inactive) | > 100 µM (inactive) | – | > 100 µM (inactive) | > 100 µM (inactive) | > 100 µM (inactive) | > 100 µM (inactive) | > 100 µM (inactive) | > 100 µM (inactive) | > 100 µM (inactive)
5 | CCOC(=O)c1cnc(-n2[nH]c3c(c2=O)CCCC3)[nH]c1=O | 50.2 µM (inactive) | 48.1 µM (inactive) | 26.2 µM (inactive) | 57.9 µM (inactive) | 28.1 µM (inactive) | – | 40.4 µM (inactive) | > 100 µM (inactive) | 43 µM (inactive) | 77.6 µM (inactive) | 52.4 µM (inactive) | – | 57.5 µM (inactive) | 37.5 µM (inactive) | 62.7 µM (inactive) | 42.6 µM (inactive) | 75.2 µM (inactive) | 13.3 µM (inactive) | > 100 µM (inactive) | 28.8 µM (inactive)
6 | O=[N+]([O-])c1ccc(-c2cn(-c3ccc(Cl)cc3)cn2)cc1 | 31.6 µM (inactive) | > 100 µM (inactive) | > 100 µM (inactive) | > 100 µM (inactive) | > 100 µM (inactive) | 18.2 µM (inactive) | > 100 µM (inactive) | 41.6 µM (inactive) | > 100 µM (inactive) | > 100 µM (inactive) | 3.76 µM (inactive) | 19.1 µM (inactive) | – | 36.6 µM (inactive) | 18.7 µM (inactive) | > 100 µM (inactive) | 34.2 µM (inactive) | > 100 µM (inactive) | 44.2 µM (inactive) | > 100 µM (inactive)
7 | COc1ccc(/N=c2/oc3ccccc3cc2C(N)=O)cc1 | 18.4 µM (inactive) | 13.6 µM (inactive) | > 100 µM (inactive) | > 100 µM (inactive) | > 100 µM (inactive) | 17.2 µM (inactive) | > 100 µM (inactive) | 24.5 µM (inactive) | > 100 µM (inactive) | – | 13.4 µM (inactive) | > 100 µM (inactive) | – | 27.4 µM (inactive) | 26.3 µM (inactive) | 55.2 µM (inactive) | > 100 µM (inactive) | > 100 µM (inactive) | > 100 µM (inactive) | > 100 µM (inactive)
8 | O=C(O)CSc1nnc(CCCCCCCCc2nnc(SCC(=O)O)o2)o1 | > 100 µM (inactive) | > 100 µM (inactive) | > 100 µM (inactive) | > 100 µM (inactive) | > 100 µM (inactive) | > 100 µM (inactive) | > 100 µM (inactive) | > 100 µM (inactive) | > 100 µM (inactive) | > 100 µM (inactive) | > 100 µM (inactive) | – | > 100 µM (inactive) | 55.5 µM (inactive) | > 100 µM (inactive) | > 100 µM (inactive) | > 100 µM (inactive) | > 100 µM (inactive) | > 100 µM (inactive) | > 100 µM (inactive)
9 | CCCCCCCCCCCCCCCCCC(=O)OCC(COC1OC(CS(=O)(=O)O)C(O)C(O)C1O)OC(=O)CCCCCCCCCCCCCCCCC (centres undefined) | > 100 µM (inactive) | > 100 µM (inactive) | > 100 µM (inactive) | > 100 µM (inactive) | > 100 µM (inactive) | > 100 µM (inactive) | > 100 µM (inactive) | > 100 µM (inactive) | > 100 µM (inactive) | > 100 µM (inactive) | > 100 µM (inactive) | > 100 µM (inactive) | > 100 µM (inactive) | > 100 µM (inactive) | > 100 µM (inactive) | – | > 100 µM (inactive) | 0.222 µM (active) | > 100 µM (inactive) | > 100 µM (inactive)
10 | CCOP(=O)(O)CN1CCNCCN(CP(=O)(O)OCC)CCNCC1 | > 100 µM (inactive) | > 100 µM (inactive) | 91.4 µM (inactive) | > 100 µM (inactive) | 53 µM (inactive) | > 100 µM (inactive) | 61.9 µM (inactive) | > 100 µM (inactive) | > 100 µM (inactive) | – | > 100 µM (inactive) | > 100 µM (inactive) | > 100 µM (inactive) | > 100 µM (inactive) | > 100 µM (inactive) | > 100 µM (inactive) | > 100 µM (inactive) | > 10 µM (inactive) | > 100 µM (inactive) | > 100 µM (inactive)
11 | COc1cc2c(c(OC)c1)[C@H](C)N(Cc1ccccc1)C(C)C2 (some centres undefined) | 31.3 µM (inactive) | 64.9 µM (inactive) | 29.5 µM (inactive) | > 100 µM (inactive) | 4.88 µM (inactive) | > 100 µM (inactive) | 9.57 µM (inactive) | 29.4 µM (inactive) | 22.7 µM (inactive) | 62.4 µM (inactive) | > 100 µM (inactive) | – | – | 74.1 µM (inactive) | 16.3 µM (inactive) | – | 25.4 µM (inactive) | 25.8 µM (inactive) | 45.9 µM (inactive) | 36.6 µM (inactive)

From ChEMBL document CHEMBL1201862, “PubChem BioAssay data set” (2004)
